Measured values: patent publication US8916567B2, “Certain crystalline hydrates, pharmaceutical compositions thereof and methods for preparation and use thereof” (Universal Technology Alliance, Inc., priority 2009, dated 2014)

Experiment: Stability under high temperature and high humidity (relative humidity 75%, 40° C.)
Type: physicochemical
Experimental: In order to further evaluate the effect of temperature, humidity and light on the quality of the crystalline compounds of the present disclosure, the hydrates were placed in a dessicator with a relative humidity of 75% and at a constant temperature of 40° C. The samples were then collected at 1, 2, 3, and 6 months. Results are shown in Tables 10-14, wherein the “related substances” mean all of the ingredients in a sample except the active material. The content of the related substances in a sample was measure by HPLC in accordance to the Chinese Pharmacopeia (2005 edition, Part II, Appendix V D).

[1] = water content by TGA, 0 month, hydrate
[2] = water content by TGA, 1 month, hydrate
[3] = water content by TGA, 2 months, hydrate
[4] = water content by TGA, 3 months, hydrate
[5] = water content by TGA, 6 months, hydrate

Compound	Characters (0 month)	Related substances (%) (0 month, HPLC)	Characters (1 month)	Related substances (%) (1 month, HPLC)	Characters (2 months)	Related substances (%) (2 months, HPLC)	Characters (3 months)	Related substances (%) (3 months, HPLC)	Characters (6 months)	Related substances (%) (6 months, HPLC)	Related substances (%) (by HPLC, 0 month, hydrate)	Related substances (%) (by HPLC, 1 month, hydrate)	Related substances (%) (by HPLC, 2 months, hydrate)	Related substances (%) (by HPLC, 3 months, hydrate)	Related substances (%) (by HPLC, 6 months, hydrate)	TGA (%) [1] [%]	TGA (%) [2] [%]	TGA (%) [3] [%]	TGA (%) [4] [%]	TGA (%) [5] [%]	further results
CC(=O)NC[C@H]1CN(c2ccc(N3CCN(c4ccccc4)CC3)c(F)c2)C(=O)O1 [1/12 hydrate, (S)—[N-3-(3′-fluoro-4′-(4″-phenylpiperazinyl))phenyl-2-oxo-5-oxazolidinyl]methyl acetamide 1/12 hydrate]	White powder	0.94	White powder	0.88	White powder	0.90	White powder	0.92	White powder	0.93											TGA (%) (0 month, hydrate): 0.40%; TGA (%) (1 month, hydrate): 0.38%; TGA (%) (2 months, hydrate): 0.39%; TGA (%) (3 months, hydrate): 0.40%; TGA (%) (6 months, hydrate): 0.42%
CC(=O)NC[C@H]1CN(c2ccc(N3CCN(c4ccccc4)CC3)c(F)c2)C(=O)O1 [2/7 hydrate, (S)—[N-3-(3′-fluoro-4′-(4″-phenylpiperazinyl))phenyl-2-oxo-5-oxazolidinyl]methyl acetamide 2/7 hydrate]	White powder		White powder		White powder		White powder		White powder		0.91	0.89	0.90	0.91	0.95	1.20	1.21	1.19	1.23	1.21	
CC(=O)NC[C@H]1CN(c2ccc(N3CCN(c4ccccc4)CC3)c(F)c2)C(=O)O1 [3/4 hydrate, (S)—[N-3-(3′-fluoro-4′-(4″-phenylpiperazinyl))phenyl-2-oxo-5-oxazolidinyl]methyl acetamide 3/4 hydrate]	White powder	0.94	White powder	0.88	White powder	0.90	White powder	0.92	White powder	0.93											TGA (%) (0 month, listed as ¾ hydrate, hydrate): 3.10%; TGA (%) (1 month, listed as ¾ hydrate, hydrate): 3.11%; TGA (%) (2 months, listed as ¾ hydrate, hydrate): 3.10%; TGA (%) (3 months, listed as ¾ hydrate, hydrate): 3.09%; TGA (%) (6 months, listed as ¾ hydrate, hydrate): 3.10%
CC(=O)NC[C@H]1CN(c2ccc(N3CCN(c4ccccc4)CC3)c(F)c2)C(=O)O1 [½ hydrate, (S)—[N-3-(3′-fluoro-4′-(4″-phenylpiperazinyl))phenyl-2-oxo-5-oxazolidinyl]methyl acetamide 1/2 hydrate]	White powder		White powder		White powder		White powder		White powder		0.90	0.88	0.92	0.90	0.94	2.14	2.15	2.16	2.20	2.10	
CC(=O)NC[C@H]1CN(c2ccc(N3CCN(c4ccccc4)CC3)c(F)c2)C(=O)O1 [⅖ hydrate, (S)—[N-3-(3′-fluoro-4′-(4″-phenylpiperazinyl))phenyl-2-oxo-5-oxazolidinyl]methyl acetamide 2/5 hydrate]	White powder		White powder		White powder		White powder		White powder		0.93	0.89	0.91	0.93	0.92	1.71	1.73	1.70	1.72	1.72	
